We go through 22 compounds from US20050059726A1, “Pyrrolidine-2-ones as factor xa inhibitors” (priority 2001, published 2005).

The structures appear in SMILES notation.

What is called Ki is the dissociation constant of the complex between target and ligand, obtained from inhibition or displacement.

The experiment addresses human Factor Xa (Homo sapiens, UniProt P00742). As to the kind of experiment: In vitro assay for inhibition of Factor Xa (2), fluorogenic assay. Format: biochemical. Conditions: substrate Rhodamine 110, bis-(CBZ-glycylglycyl-L-arginine amide 10 μM), Ki calculated from IC50. Here is the method:
In Vitro Assay for Inhibition of Factor Xa (2)
All other compounds of the present invention were tested for their Factor Xa inhibitory activity as determined in vitro by their ability to inhibit human Factor Xa in a fluorogenic assay, using Rhodamine 110, bis-(CBZ-glycylglycyl-L-arginine amide as the fluorogenic substrate. Compounds were diluted from a 10 mM stock solution in dimethylsulfoxide at appropriate concentrations. Assay was performed at room temperature using buffer consisting of: 50 mM Tris-HCl, 150 mM NaCl, 5 mM CaCl2, pH 7.4. containing human Factor Xa (final conc. Of 0.0003U.ml−1). Compound and enzyme were preincubated for 15 min prior to addition of the substrate (final conc. of 10 μM). The reaction was stopped after 3 hrs with the addition of H-D-PHE-PRO-ARG-Chloromethylketone. […] To obtain IC50 values the data were analysed using ActivityBase® and XLfit®.
Calculation of Ki values:
Ki=IC50/(1+[Substrate]/Km)
The Ki value for the above assay can be obtained by dividing the IC50 value by 1.6.

Chain of human Factor Xa (P00742 235-488 limits assumed): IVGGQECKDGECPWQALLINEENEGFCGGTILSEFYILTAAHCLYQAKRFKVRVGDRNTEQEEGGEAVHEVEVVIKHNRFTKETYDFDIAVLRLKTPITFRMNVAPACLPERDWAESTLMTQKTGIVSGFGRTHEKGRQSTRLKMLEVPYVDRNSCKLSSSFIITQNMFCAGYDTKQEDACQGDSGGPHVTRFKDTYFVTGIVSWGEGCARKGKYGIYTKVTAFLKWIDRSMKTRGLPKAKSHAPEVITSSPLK
Chain of human Factor Xa (P00742 41-179 partner limits assumed): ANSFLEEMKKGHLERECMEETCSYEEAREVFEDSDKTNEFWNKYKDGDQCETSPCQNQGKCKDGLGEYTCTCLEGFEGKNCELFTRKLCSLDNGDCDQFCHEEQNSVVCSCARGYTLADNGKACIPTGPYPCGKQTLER

Regarding `CS(=O)(=O)c1ccccc1-c1ccc(N2CC[C@H](NS(=O)(=O)c3cc4cc(Cl)ccc4o3)C2=O)c(F)c1` [Example 5, 5-Chloro-N-{(3S)-1-[3-fluoro-2′-(methylsulfonyl)-1,1′-biphenyl-4-yl]-2-oxopyrrolidin-3-yl}-1-benzofuran-2-sulfonamide], the Ki was below 10 nM.
In the case of `CS(=O)(=O)c1ccccc1-c1ccc(N2CC[C@H](NS(=O)(=O)c3cccc4cnccc34)C2=O)c(F)c1` [Example 6, N-{(3S)-1-[3-Fluoro-2′-(methylsulfonyl)-1,1′-biphenyl-4-yl]-2-oxopyrrolidin-3-yl}isoquinoline-5-sulfonamide] it was below 1000 nM.
On to `CS(=O)(=O)c1ccccc1-c1ccc(N2CC[C@H](NS(=O)(=O)/C=C/c3ccc(Cl)cc3)C2=O)c(F)c1` [Example 7, (E)-2-(4-Chlorophenyl)-N-{(3S)-1-[3-fluoro-2′-(methylsulfonyl)-1,1′-biphenyl-4-yl]-2-oxopyrrolidin-3-yl}ethenesulfonamide], for which the inhibition constant Ki was below 10 nM.
In the case of `CS(=O)(=O)c1ccccc1-c1ccc(N2CC[C@H](NS(=O)(=O)c3ccc(-c4ccc(Cl)s4)s3)C2=O)c(F)c1` [Example 8, 5′-Chloro-N-{(3S)-1-[3-fluoro-2′-(methylsulfonyl)-1,1′-biphenyl-4-yl]-2-oxopyrrolidin-3-yl}-2,2′-bithiophene-5-sulfonamide], the Ki was below 10 nM.
Consider `CN(C)c1ccc2cc(S(=O)(=O)N[C@H]3CCN(c4ccc(-c5ccccc5S(C)(=O)=O)cc4F)C3=O)ccc2c1` [Example 9, 6-(Dimethylamino)-N-{(3S)-1-[3-fluoro-2′-(methylsulfonyl)-1,1′-biphenyl-4-yl]-2-oxopyrrolidin-3-yl}naphthalene-2-sulfonamide], for which the inhibition constant (Ki) was below 1000 nM.
As for `CS(=O)(=O)c1ccccc1-c1ccc(N2CC[C@H](NS(=O)(=O)c3cc4ccc(Cl)cc4s3)C2=O)c(F)c1` [Example 11, 6-Chloro-N-{(3S)-1-[3-fluoro-2′-(methylsulfonyl)-1,1′-biphenyl-4-yl]-2-oxopyrrolidin-3-yl}-1-benzothiophene-2-sulfonamide], the Ki is below 10 nM.
As for `CS(=O)(=O)c1ccccc1-c1ccc(N2CC[C@H](NS(=O)(=O)c3cc4cc(Cl)ccc4s3)C2=O)c(F)c1` [Example 12, 5-Chloro-N-{(3S)-1-[3-fluoro-2′-(methylsulfonyl)-1,1′-biphenyl-4-yl]-2-oxopyrrolidin-3yl}-1-benzothiophene-2-sulfonamide], the Ki was below 10 nM.
On to `NS(=O)(=O)c1ccccc1-c1ccc(N2CC[C@H](NS(=O)(=O)c3cc4ccc(Cl)cc4s3)C2=O)c(F)c1` [Example 15, N-{(3S)-1-[2′-(Aninosulfonyl)-3-fluoro-1,1′-biphenyl-4-yl]-2-oxopyrrolidin-3-yl}-6-chloro-1-benzothiophene-2-sulfonamide], for which the Ki was below 10 nM.
With `C/C(=C\S(=O)(=O)N[C@H]1CCN(c2ccc(-c3ccccc3S(N)(=O)=O)cc2F)C1=O)c1ccc(Cl)s1` [Example 16, 4′-[(3S)-3-({[(1E)-2-(5-Chlorothien-2-yl)prop-1-enyl]sulfonyl}amino)-2-oxopyrrolidin-1-yl]-3′-fluoro-1,1′-biphenyl-2-sulfonamide] the figure was below 10 nM; with `O=C1[C@@H](NS(=O)(=O)/C=C/c2ccc(Cl)s2)CCN1c1ccc(-c2ccccc2[N+](=O)[O-])cn1` [Example 17, (E)-2-(5-Chlorothien-2-yl)-N-{(3S)-1-[5-(2-nitrophenyl)pyridin-2-yl]-2-oxopyrrolidin-3-yl}ethenesulfonamide], below 10 nM.
In the case of `O=C1[C@@H](NS(=O)(=O)/C=C/c2ccc(Cl)s2)CCN1c1ccc(-c2ccccc2[N+](=O)[O-])cc1F` [Example 18, (E)-2-(5-Chlorothien-2-yl)-N-[(3S)-1-(3-fluoro-2′-nitro-1,1′-biphenyl-4-yl)-2-oxopyrrolidin-3-yl]ethenesulfonamide], the Ki was below 10 nM.
Consider `O=C1[C@@H](NS(=O)(=O)/C=C/c2ccc(Cl)s2)CCN1c1ccc(-c2ccccc2C(F)(F)F)cn1` [Example 24, (E)-2-(5-Chlorothien-2-yl)-N-((3S)-2-oxo-1-{5-[2-(trifluoromethyl)phenyl]pyridin-2-yl}pyrrolidin-3yl)ethenesulfonamide], for which the Ki was below 10 nM.
`CN(C)C(=O)c1ccccc1-c1ccc(N2CC[C@H](NS(=O)(=O)/C=C/c3ccc(Cl)s3)C2=O)nc1` [Example 25, 2-{6-[(3S)-3-({[(E)-2-(5-Chlorothien-2-yl)ethenyl]sulfonyl}amino)-2-oxopyrrolidin-1-yl]pyridin-3-yl}-N,N-dimethylbenzamide]: the Ki is below 20 nM.
On to `N#Cc1ccccc1-c1ccc(N2CC[C@H](NS(=O)(=O)/C=C/c3ccc(Cl)s3)C2=O)nc1` [Example 26, (E)-2-(5-Chlorothien-2-yl)-N-{(3S)-1-[5-(2-cyanophenyl)pyridin-2yl]-2-oxopyrrolidin-3-yl}ethenesulfonamide], for which the Ki was below 10 nM.
In the case of `CN(C)S(=O)(=O)c1ccccc1-c1ccc(N2CC[C@H](NS(=O)(=O)/C=C/c3ccc(Cl)s3)C2=O)nc1` [Example 28], the Ki is below 10 nM.
On to `CNS(=O)(=O)c1ccccc1-c1ccc(N2CC[C@H](NS(=O)(=O)/C=C/c3ccc(Cl)s3)C2=O)nc1` [Example 29, 2-{6-[(3S)-3-({[(E)-2-(5-Chlorothien-2-yl)ethenyl]sulfonyl}amino)-2-oxopyrrolidin-1-yl]pyridin-3-yl}-N-methylbenzenesulfonamide], for which the Ki was below 10 nM.
In the case of `CN(c1ccccc1-c1ccc(N2CC[C@H](NS(=O)(=O)/C=C/c3ccc(Cl)s3)C2=O)nc1)S(C)(=O)=O` [Example 30, (E)-2-(5-Chlorothien-2-yl)-N-[(3S)-1-(5-{2-[methyl(methylsulfonyl)amino]phenyl}pyridin-2-yl)-2-oxopyrrolidin-3yl]ethenesulfonamide], the Ki is below 10 nM.
Regarding `CC(C)Oc1ccccc1-c1ccc(N2CC[C@H](NS(=O)(=O)/C=C/c3ccc(Cl)s3)C2=O)nc1` [Example 31, (E)-2-(5-Chlorothien-2-yl)-N-{(3S)-1-[5-(2-isopropoxyphenyl)pyridin-2-yl]-2-oxopyrrolidin-3-yl}ethenesulfonamide], the Ki is below 200 nM.
For `CS(=O)(=O)c1ccccc1-c1ccc(N2CC[C@H](NS(=O)(=O)c3ccc(C#N)cc3)C2=O)c(F)c1` [Example 34], the inhibition constant Ki was below 1000 nM.
In the case of `CS(=O)(=O)c1ccccc1-c1ccc(N2CC[C@H](NS(=O)(=O)c3cc4ccc(Cl)cc4o3)C2=O)c(F)c1` [Example 36, 6-Chloro-N-{(3S)-1-[3-fluoro-2′-(methylsulfonyl)-1,1′-biphenyl-4yl]-2-oxopyrrolidin-3-yl}-1-benzofuran-2-sulfonamide] it was below 10 nM; in that of `CS(=O)(=O)c1ccccc1-c1ccc(N2CC[C@H](NS(=O)(=O)c3cc4ncc(Cl)cc4s3)C2=O)c(F)c1` [Example 37, 6-Chloro-N-{(3S)-1-[3-fluoro-2′-(methylsulfonyl)-1,1′-biphenyl-yl]-2-oxopyrrolidin-3-yl}thieno[3,2b]pyridine-2-sulfonamide], below 20 nM; in that of `CS(=O)(=O)c1ccccc1-c1ccc(N2CC[C@H](NS(=O)(=O)c3cc4nc(Cl)ccc4s3)C2=O)c(F)c1` [Example 38, 5-Chloro-N-{(3S)-1-[3-fluoro-2′-(methylsulfonyl)-1,1′-biphenyl-4-yl]-2-oxopyrrolidin-3-yl}thieno[3,2-b]pyridine-2-sulfonamide], below 10 nM.
